Measurements as given in patent publication EP0002058A1, “3-(2-Aminoethylthio-6-ethyl-7-oxo-1-azabicylo-(3.2.0)-hept-2-en-2-carboxylic acid, process for preparing it and compositions comprising it” (SANRAKU-OCEAN CO., LTD., priority 1977, dated 1979).
In brackets after ≈: the same amount, converted by molar mass. Counter-ions that a name gives are not always drawn.

Columns and labels:
[1] = system: pathogenic Gram-positive bacteria; test: Activity in vivo (general statement); settings: mice infected with pathogenic Gram-positive bacteria
[2] = Solubility; assay type: physicochemical
[3] = system: staphylococcal bacteria; test: Antimicrobial spectrum (general statement); assay type: cell-based
[4] = system: Klebsiella pneumoniae K-2; test: Minimum inhibitory concentration, broth dilution method (brain heart infusion medium); assay type: cell-based; settings: K2, inoculum about 1 x 10^5/ml, 35°C, 20 hours
Description: (§1) The minimum inhibitory concentration was determined on various pathogenic microorganisms including a resistant strain to the N-desacetyl derivative by the broth dilution method with a brain heart infusion medium "Eiken" (Eiken Kagaku Co.). Sample solutions to be tested were prepared in a serial dilution with the medium, which were inoculated with the test microorganisms at the final cell count of about 1 x 10^5/ml and incubated at 35 °C. After 20 hours the microbial growth was examined. The minimum inhibitory concentration was determined as the lowest concentration of the sample at which no growth of the corresponding test microorganism was observed.

[5] = system: Staphylococcus aureus Russel; test: as above; assay type: cell-based; settings: inoculum about 1 x 10^5/ml, 35°C, 20 hours
Description: as §1

[6] = system: Staphylococcus aureus FDA 209P; test: as above; assay type: cell-based; settings: for MIC: Staphylococcus aureus, FDA209P, inoculum about 1 x 10^5/ml, 35°C, 20 hours
Description: as §1

[7] = design: species or system male ddy mice; settings: mouse, in vivo, ip, 500 mg/kg
[8] = system: Staphylococcus aureus Smith; test: Activity in vivo in mice inoculated intraperitoneally with Staphylococcus aureus Smith; design: species or system male ddy mice; settings: sc, 5 x 10^5 cells/mouse intraperitoneally, injected subcutaneously immediately after the inoculation, read-out: CD50 value
Description: The N-desacetyl derivative was prepared on a large scale in a similar manner to the above-described and the activity in vivo was determined in mice inoculated with 5 x 10^5 cells/mouse of Staphylococcus aureus Smith intraperitoneally. The derivative was injected subcutaneously immediately after the inoculation.

[9] = system: Comanonas terrigena B-996; test: Bioassay of antibacterial potency (disc on agar assay plate, CCU); assay type: cell-based; settings: purified solid preparation
From the text: • (1) Cells of Comanonas terrigena B-996, cultivated on a nutrient agar overnight, are suspended in a nutrient broth to give a seed culture having an absorbance at […], ascribable to the cells, of 0.04. A melted agar medium consisting of 0.8% Kyokuto powdered bouillon (Kyokuto Seiyaku Kogyo) and 1% Bacto agar (Difco Labs.) is inoculated with 1% of the seed culture. Seven ml portions of the agar medium are poured into petri dishes with a diameter of 9 cm and solidified to prepare a Comamonas assay plate. • (2) Staphylococcus aureus FDA209P is cultivated overnight with shaking in a nutrient broth. The culture is diluted to 50 times with a nutrient broth to obtain a seed culture. A melted agar medium consisting of 1% Kyokuto powdered bouillon (Kyokuto Seiyaku Kogyo) and 1% Bacto agar (Difco Labs.) is inoculated with 1% of the seed culture. Seven ml portions of the agar medium are poured into petri dishes with a diameter of 9 cm and solidified to prepare a Staphylococcus assay plate. • (3) A pulp disc with a diameter of 8 mm is soaked in a sample solution and put on the assay plate mentioned above after removing an excess of the sample solution soaked by placing on filter paper. […] The diameter of the inhibitory zone is measured. TIle concentration of the test compound in the sample solution is calculated by comparing the diameter with that of the standard solution.

Row | Structure (SMILES) | MIC [4] | MIC [5] | MIC [6] | antibacterial potency [9] | further results
1 | CCC1C(=O)N2C(C(=O)O)=C(SCCN)CC12 (stereo not drawn) [N-desacetyl derivative] | 5 µg/mL (≈ 19.5 µM) | 0.063 µg/mL (≈ 0.246 µM) | 0.008 µg/mL (≈ 0.0312 µM) | – | therapeutic effect [1]: remarkable therapeutic effect; Solubility in acetone, ethyl acetate and benzene ([2]; acetone, ethyl acetate and benzene): practically insoluble; Solubility in water ([2]; water): easily soluble; antimicrobial activity [3]: high antimicrobial activity; inhibitory activity relative to that of the antibiotic PS-5 ([6]; Staphylococcus aureus FDA 209p, times higher than antibiotic PS-5): about 10 times; acute toxicity [7]: No acute toxicity; ED50 [8]: 0.55 mg/kg
2 | CO[C@@]1(NC(=O)Cc2cccs2)C(=O)N2C(C(=O)O)=C(COC(N)=O)CS[C@@H]21 [Cefoxitin, reference compound] | 12.5 µg/mL (≈ 29.2 µM) | 3.13 µg/mL (≈ 7.32 µM) | 1.56 µg/mL (≈ 3.65 µM) | – | –
3 | CC[C@H]1C(=O)N2C(C(=O)OC(c3ccccc3)(c3ccccc3)c3ccccc3)=C(SCCNC(C)=O)C[C@H]12 (relative stereo) [trityl ester of antibiotic PS-5] | – | – | – | 10,800 CCU/mg | –
4 | CC[C@H]1C(=O)N2C(C(=O)O)=C(SCCNC(C)=O)C[C@H]12 (relative stereo) [PS-5 sodium salt, reference compound] | – | – | – | 21,000 CCU/mg | –
